Source: patent US20090131462A1, “Fungicidally Active Agent” (BASF AKTIENGESELLSCHAFT, priority 2005, published 2009)

Test system: Pyrenophora teres
Assay: Activity against net blotch of barley caused by Pyrenophora teres, 2-day protective application
Type: in vivo
Conditions: individual active compound, barley seedlings cultivar Hanna, inoculated 48 hours after spraying, evaluated after 6 days
Method: The active compounds were used either as a commercial formulation or employed as a stock solution. The stock solution was prepared from 25 mg of active compound which had been made up to 10 ml using a mixture of acetone and/or DMSO as solvent and the emulsifier Uniperol® EL (wetting agent having emulsifying and dispersing action based on ethoxylated alkylphenols) in a volume ratio of solvent to emulsifier of 99:1. The volume was then made up to 100 ml using water.
Evaluation was carried out by visually determining the infected leaf areas in %. These percentages were converted into efficacies in % of the untreated control. At an efficacy of 0, the infection of the treated plants corresponds to that of the untreated control plants; at an efficacy of 100, the treated plants are not infected.
The expected efficacies for active compound combinations were determined using Colby's formula (Colby, S. R., “Calculating synergistic and antagonistic responses of herbicide combinations”, Weeds, 15, pp. 20-22, 1967) and compared to the observed efficacies.
Colby's formula: E=x+y−xy/100
E expected efficacy, expressed in % of the untreated control, when using the mixture of the active compounds A and B at the concentrations a and b x efficacy, expressed in % of the untreated control, when using the active compound A at the concentration a y efficacy, expressed in % of the untreated control, when using the active compound B at the concentration b Activity against net blotch of barley caused by Pyrenophora teres, 2-day protective application Leaves of potted barley seedlings of the cultivar “Hanna” were sprayed to runoff point with an aqueous suspension having the concentration of active compound stated below. 48 hours after the spray coating had dried on, the test plants were inoculated with an aqueous spore suspension of Pyrenophora teres (synonym Drechslera teres), the net blotch pathogen. […] After 6 days, the extent of the development of the disease was determined visually in % infection of the total leaf area.

CC(C)CC(C)c1sccc1NC(=O)c1cn(C)nc1C(F)(F)F (stereo not drawn) [compound A, N-[2-(1,3-dimethylbutyl)-3-thienyl]-1-methyl-3-(trifluoromethyl)-1H-pyrazole-4-carboxamide]
Efficacy (4 ppm in the spray liquor, % of the untreated control): 22%
Efficacy (concentration in the spray liquor printed as 0 ppm): 0.5%

metiram
Efficacy (250 ppm in the spray liquor): 0%
